Source: patent US20080318842A1, “Cyclic Isodityrosine Derivatives” (priority 2004, published 2008)
In brackets after ≈: the same amount, converted by molar mass. Where two headings read alike, the source gives them in different places.

How the values were obtained:
[1] = system: MRSA K24 strain; assay: Imipenem activity-potentiating effect, paper-disc method on plate containing imipenem; type: cell-based, methicillin-resistant Staphylococcus aureus; details: for MRSA (mm) [10 μg/6 mm disc]: diameter of inhibition circle, 10 μg agent per 6 mm paper disc, plate with imipenem 10 μg/mL, 37° C., 20 hours
Description: In this example, clinically isolated MRSA K24 strain was used as an assay strain. A plate for control was prepared by adding 1.5% of agar (manufactured by Shimizu Shokuhin Kaisha, Ltd.) to Mueller-Hinton Broth (manufactured by DIFCO Laboratories), and a plate for assay was prepared by adding imipenem (trade name: Tienam for intramuscular injection, titer: 0.5, manufactured by Banyu Pharmaceutical Co., Ltd.) to the above composition so that the final concentration of imipenem was 10 μg/mL. These plates were used as assay plates. An inoculum solution was prepared by culturing the assay strain in Mueller-Hinton Broth for one night, and diluting the culture solution with the same culture medium so as to have a concentration of 0.5 McFarland units (about 10^8 cfu/mL). This inoculum solution was applied on each of the plates with a sterile cotton swab in accordance with the National Committee For Clinical Laboratory Standards (NCCLS) method. The antibacterial activities against the assay strain in the plates were evaluated by a paper-disc method as follows. Paper discs with a diameter of 6 mm impregnated with 10 μg of assay medical agents (eurypamides A, A′, B, and D, and Compounds (1) to (12)) were placed on each of the plates, and the plates were cultured at 37° C. for 20 hours.
On the plate for control, the assay strain was grown under the paper discs. […] In addition, the assay strain could be grown on the plate for assay. […] If the compound impregnated in the paper disc acts in combination with imipenem to exert anti-MRSA activity, growth of the assay strain would not be observed under and around the paper disc. Therefore, in this example, the imipenem activity-potentiating effect for MRSA is represented by a diameter of an inhibition circle (the diameter passing through the center of the paper disc) on the assay plates.

[2] = system: mouse peritoneal macrophages; assay: Inhibition of production of cholesteryl ester from [14C] oleic acid in mouse peritoneal macrophages; type: cell-based; details: for IC50: Peritoneal macrophage
Description: Production of a cholesteryl ester in mouse peritoneal macrophages was performed by partly modifying the method by Nishikawa et al (Nishikawa et al., the Journal of Biological Chemistry (JBC) 265, pp. 5226-5231, 1990). Mouse peritoneal macrophages were prepared from an ICR female mouse as follows. First, cells were isolated from the mouse peritoneal cavity using a Hank's balanced salt solution (HBSS) and then suspended in a GIT medium so as to have a concentration of 2×10^6 cells/mL. Subsequently, 0.25 mL of the suspension was placed in each of 48 wells on a plastic culture plate, and the plate was cultured in the presence of 5% CO2 at 37° C. for two hours. In order to remove non-adhesive cells, each well was then washed with 0.25 mL of an HBSS three times. Finally, 0.25 mL of a culture medium A (Dulbecco's modified Eagle's medium (DMEM) containing 100 u/mL of penicillin, 100 μg/mL of streptomycin, and an 8% lipoprotein-free serum) was added thereto.
The effect of inhibiting the synthesis of a cholesteryl ester of the agents (eurypamides A, A′, B, and D, and Compounds (1) to (12)) in the macrophages thus prepared was evaluated as follows: The amount of [^14C] cholesteryl ester and [^14C] triacylglycerol synthesized from [^14C] oleic acid was measured as follows, and a concentration of the agent at which the synthesis was inhibited by 50% (IC50: μg/mL) was determined.
First, the macrophages (5×10^5 cells/0.25 mL/well) were cultured in a plastic culture plate with 48 wells. Subsequently, 5 μL of [^14C] oleic acid (1 nmol, 0.05 μCi, which was dissolved in a phosphate buffered saline (PBS) containing 10% ethanol), liposome (having a composition of phosphatidylcholine/phosphatidylserine/diacetylphosphate/cholesterol=10/10/2/5 (nmol) in 10 μL of 0.3 M glucose), and 2.5 μL of each agent dissolved in methanol were added to each well. The plate was cultured for 14 hours, and the culture medium was then removed. Each of the wells was washed with a PBS three times. Subsequently, 0.25 mL of a PBS containing 0.1% (w/v) sodium dodecyl sulfate (SDS) was added to each well to lyse the cells. Lipid in the cells was extracted by the method by Bligh & Dyer (Bligh & Dyer, Can. J. Biochem. Physiol., 37, pp. 911-917, 1959). The volume of the organic solvent was reduced by centrifugation in vacuum. The solution was spotted on a thin-layer chromatography (TLC) plate (silica gel […], thickness: 0.5 mm, manufactured by Merck Ltd.) and developed with hexane/diethyl ether/acetic acid (70/30/1, v/v). The amounts of separated [^14C] cholesteryl oleate and [^14C] triacylglycerol were analyzed with a bioimage analyzer (BAS2000 manufactured by FUJIFILM Corporation).

[3] = Mus musculus, 14 h, read-out: Macrophage [IC50 μg/mL]
[4] = Mus musculus, read-out: IC50 of inhibiting the production of cholesteryl oleate
[5] = Mus musculus, synthesis of [14C] cholesteryl ester from [14C] oleic acid, 14 hours culture, read-out: Macrophage [IC50 μg/mL]
[6] = mouse peritoneal macrophages, read-out: IC50 of inhibiting the production of cholesteryl oleate
[7] = synthesis of [14C] cholesteryl ester from [14C] oleic acid, 14 hours culture

Molecule | MRSA (mm) [10 μg/6 mm disc] [1] | imipenem activity-potentiating effect (anti-MRSA activity in combination with imipenem), in words [1] | IC50 [2, 3] | IC50 [2, 4] | effect of inhibiting the synthesis of a cholesteryl ester in macrophages, in words [2] | IC50 [2, 5] | IC50 [2, 6] | Macrophage [IC50 μg/mL] [2, 7]
COC(=O)C1Cc2cc(Br)c(c(Br)c2)Oc2cc(cc(I)c2O)C[C@H](NC(=O)OCc2ccccc2)C(=O)N[C@@H]([C@H](C)OCc2ccccc2)C(=O)N1 (some centres unmarked) [Compound (1), N-Cbz-Thr(O-benzyl)-dibromo-iodo-eurypamide B methyl ester] | 8 mm | potentiate | 3 µg/mL (≈ 3.11 µM) | 3 µg/mL (≈ 3.11 µM) | have an effect of inhibiting the synthesis of a cholesteryl ester in macrophages | – | – | –
COC(=O)C1Cc2cc(Br)c(c(Br)c2)Oc2cc(cc(I)c2O)C[C@H](NC(=O)OC(C)(C)C)C(=O)N[C@@H]([C@H](C)OCc2ccccc2)C(=O)N1 (some centres unmarked) [Compound (2), N-Boc-Thr(O-benzyl)-dibromo-iodo-eurypamide B methyl ester] | 8 mm | potentiate | 3 µg/mL (≈ 3.22 µM) | 3 µg/mL (≈ 3.22 µM) | have an effect of inhibiting the synthesis of a cholesteryl ester in macrophages | – | – | –
C[C@@H](O)[C@@H]1NC(=O)[C@@H](NC(=O)OC(C)(C)C)Cc2cc(I)c(O)c(c2)Oc2c(Br)cc(cc2Br)CC(C(=O)O)NC1=O (some centres unmarked) [Compound (3), N-Boc-dibromo-iodo-eurypamide B] | 10 mm | potentiate | > 10 µg/mL | – | – | – | – | –
COC(=O)C1Cc2cc(Br)c(c(Br)c2)Oc2cc(cc(I)c2O)C[C@H](N)C(=O)N[C@@H]([C@@H](C)O)C(=O)N1 (some centres unmarked) [Compound (4), dibromo-iodo-eurypamide B methyl ester] | 8 mm | potentiate | – | – | – | > 10 µg/mL | – | –
COC(=O)[C@@H]1Cc2cc(Br)c(c(Br)c2)Oc2cc(cc(I)c2O)C[C@H](N)C(=O)N[C@@H](C(C)OCc2ccccc2)C(=O)N1 (some centres unmarked) [Compound (5), Thr(O-benzyl)-dibromo-iodo-eurypamide B methyl ester] | 8 mm | potentiate | – | – | – | > 10 µg/mL | – | –
COC(=O)[C@@H]1Cc2cc(Br)c(c(Br)c2)Oc2cc(cc(I)c2O)C[C@H](NC(=O)OCC2c3ccccc3-c3ccccc32)C(=O)N[C@@H](C(C)OCc2ccccc2)C(=O)N1 (some centres unmarked) [Compound (6)] | – | do not potentiate | – | – | have an effect of inhibiting the synthesis of a cholesteryl ester in macrophages | 0.32 µg/mL (≈ 0.304 µM) | 0.32 µg/mL (≈ 0.304 µM) | –
COC(=O)[C@@H]1Cc2cc(Br)c(c(Br)c2)Oc2cc(cc(I)c2O)C[C@H](NC(=O)CCCCCNC(=O)OC(C)(C)C)C(=O)N[C@@H](C(C)OCc2ccccc2)C(=O)N1 (some centres unmarked) [Compound (7)] | – | do not potentiate | – | – | have an effect of inhibiting the synthesis of a cholesteryl ester in macrophages | 4.2 µg/mL (≈ 4.02 µM) | 4.2 µg/mL (≈ 4.02 µM) | –
COC(=O)[C@@H]1Cc2cc(Br)c(c(Br)c2)Oc2cc(cc(I)c2O)C[C@H](NC(=O)C(Cc2ccccc2)NC(=O)OC(C)(C)C)C(=O)N[C@@H](C(C)OCc2ccccc2)C(=O)N1 (some centres unmarked) [Compound (8)] | – | do not potentiate | – | – | have an effect of inhibiting the synthesis of a cholesteryl ester in macrophages | 5 µg/mL (≈ 4.64 µM) | 5 µg/mL (≈ 4.64 µM) | –
CC(OCc1ccccc1)[C@@H]1NC(=O)[C@@H](NC(=O)OC(C)(C)C)Cc2cc(I)c(O)c(c2)Oc2c(Br)cc(cc2Br)C[C@@H](C(=O)O)NC1=O (some centres unmarked) [Compound (9)] | 17 mm | potentiate | > 10 µg/mL | – | – | – | – | –
CC(OCc1ccccc1)[C@@H]1NC(=O)[C@@H](N)Cc2cc(I)c(O)c(c2)Oc2c(Br)cc(cc2Br)C[C@@H](C(=O)O)NC1=O (some centres unmarked) [Compound (11)] | 12 mm | potentiate | – | – | – | > 10 µg/mL | – | –
COC(=O)[C@@H]1Cc2cc(Br)c(c(Br)c2)Oc2cc(cc(I)c2O)C[C@H](NC(=O)OC(C)(C)C)C(=O)N[C@@H](C(C)O)C(=O)N1 (some centres unmarked) [Compound (12), N-Boc-dibromo-iodo-eurypamide B methyl ester] | 9 mm | potentiate | > 10 µg/mL | – | – | – | – | –
C[C@@H](O)[C@@H]1NC(=O)[C@@H](N)Cc2ccc(O)c(c2)Oc2ccc(cc2)C[C@@H](C(=O)O)NC1=O [Eurypamide B, reference compound] | – | – | – | – | – | – | – | — (The symbol “-” in the column of macrophage in Table 1 means that the compound did not exhibit inhibition in its amount of 10 μg/mL)
Eurypamide A [reference compound] | – | – | – | – | – | – | – | — (The symbol “-” in the column of macrophage in Table 1 means that the compound did not exhibit inhibition in its amount of 10 μg/mL)
Eurypamide A′ [reference compound] | – | – | – | – | – | – | – | — (The symbol “-” in the column of macrophage in Table 1 means that the compound did not exhibit inhibition in its amount of 10 μg/mL)
Eurypamide D [reference compound] | – | – | – | – | – | – | – | — (The symbol “-” in the column of macrophage in Table 1 means that the compound did not exhibit inhibition in its amount of 10 μg/mL)
